The target of the experiment is T1, JAK2 (Homo sapiens, UniProt O60674).
T1 construct: endogenous in cells; host or cells: mixed Molt4/Ramos lysate (1:2)
Nature of the experiment: Kinobeads assay, JAK2. As to conditions: mixed Molt4/Ramos lysate, read-out: Inhibition values (IC50) JAK2. The class given is binding. The method, boiled down:
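IC50 values come from dose-response curves of JAK2/JAK3 captured on immobilized aminopyrido-pyrimidine beads, quantified by antibody dot blot with infrared read-out. Compounds (1:3 series, 9 steps, from 5 mM DMSO stock) competed for 3 h in the cold with mixed Molt4/Ramos lysate (1:2, 10 mg/mL protein).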

T1 sequence (O60674 whole entry): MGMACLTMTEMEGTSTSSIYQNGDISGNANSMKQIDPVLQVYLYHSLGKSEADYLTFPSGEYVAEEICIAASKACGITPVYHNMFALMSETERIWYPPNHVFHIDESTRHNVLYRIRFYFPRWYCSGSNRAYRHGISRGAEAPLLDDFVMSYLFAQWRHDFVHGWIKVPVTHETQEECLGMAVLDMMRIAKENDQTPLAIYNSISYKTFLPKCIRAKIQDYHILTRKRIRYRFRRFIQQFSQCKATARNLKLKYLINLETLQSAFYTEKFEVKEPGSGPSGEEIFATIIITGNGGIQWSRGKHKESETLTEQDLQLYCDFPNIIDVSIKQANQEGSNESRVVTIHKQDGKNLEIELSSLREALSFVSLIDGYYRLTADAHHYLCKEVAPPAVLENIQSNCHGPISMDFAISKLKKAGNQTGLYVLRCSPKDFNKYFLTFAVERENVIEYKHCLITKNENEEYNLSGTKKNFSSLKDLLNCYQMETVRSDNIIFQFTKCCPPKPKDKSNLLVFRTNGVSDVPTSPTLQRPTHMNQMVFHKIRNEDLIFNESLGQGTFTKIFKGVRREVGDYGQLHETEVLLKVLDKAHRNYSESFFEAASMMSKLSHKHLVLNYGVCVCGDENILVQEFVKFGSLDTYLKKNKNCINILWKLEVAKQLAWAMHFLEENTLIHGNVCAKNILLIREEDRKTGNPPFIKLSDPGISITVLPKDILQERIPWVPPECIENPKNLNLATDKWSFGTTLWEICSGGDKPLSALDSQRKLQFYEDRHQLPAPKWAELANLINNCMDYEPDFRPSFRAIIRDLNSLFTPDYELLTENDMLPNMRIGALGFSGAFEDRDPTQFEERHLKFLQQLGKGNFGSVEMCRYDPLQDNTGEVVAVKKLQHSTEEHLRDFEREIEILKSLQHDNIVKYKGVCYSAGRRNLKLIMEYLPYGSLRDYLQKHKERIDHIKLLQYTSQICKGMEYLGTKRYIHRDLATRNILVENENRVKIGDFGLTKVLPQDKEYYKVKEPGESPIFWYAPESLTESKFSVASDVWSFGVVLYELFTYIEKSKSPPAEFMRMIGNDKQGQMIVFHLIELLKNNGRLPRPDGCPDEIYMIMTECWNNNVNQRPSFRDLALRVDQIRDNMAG

By IC50 is commonly meant the midpoint of a concentration-inhibition curve. `O=C(c1cccc(Cn2ncc3cnc(Nc4cnn(CCO)c4)nc32)c1F)N1CCOCC1` [Example 85, (2-Fluoro-3-((6-((1-(2-hydroxyethyl)-1H-pyrazol-4-yl)amino)-1H-pyrazolo[3,4-d]pyrimidin-1-yl)methyl)phenyl)(morpholino)methanone]: the IC50 is 1 to 10 µM.
Regarding `Cn1cc(Nc2ncc3cnn(Cc4c(F)c(F)cc(N5CCOCC5=O)c4F)c3n2)cn1` [Example 61, 4-(2,4,5-Trifluoro-3-((6-((1-methyl-1H-pyrazol-4-yl)amino)-1H-pyrazolo[3,4-d]pyrimidin-1-yl)methyl)phenyl)morpholin-3-one], the IC50 lay in the range of 1 to 10 µM.
With `O=C1COCCN1c1cccc(Cn2ncc3cnc(Nc4cnn(CCO)c4)nc32)c1F` [Example 46, 4-(2-Fluoro-3-((6-((1-(2-hydroxyethyl)-1H-pyrazol-4-yl)amino)-1H-pyrazolo[3,4-d]pyrimidin-1-yl)methyl)phenyl)morpholin-3-one] the figure was 1 to 10 µM; with `CN(C)CCCn1cc(Nc2ncc3cnn(Cc4cccc(N5CCOCC5=O)c4F)c3n2)cn1` [Example 50, 4-(3-((6-((1-(3-(Dimethylamino)propyl)-1H-pyrazol-4-yl)amino)-1H-pyrazolo[3,4-d]pyrimidin-1-yl)methyl)-2-fluorophenyl)morpholin-3-one], 1 to 10 µM.
With `Cn1cc(Nc2ncc3cnn(Cc4c(F)ccc(N5CCNCC5=O)c4F)c3n2)cn1` [Example 76, 1-(2,4-Difluoro-3-((6-((1-methyl-1H-pyrazol-4-yl)amino)-1H-pyrazolo[3,4-d]pyrimidin-1-yl)methyl)phenyl)piperazin-2-one] the figure was 1 to 10 µM.
`O=C1CNCCN1c1cccc(Cn2ncc3cnc(Nc4cnn(CCO)c4)nc32)c1F` [Example 55, 1-(2-Fluoro-3-((6-((1-(2-hydroxyethyl)-1H-pyrazol-4-yl)amino)-1H-pyrazolo[3,4-d]pyrimidin-1-yl)methyl)phenyl)piperazin-2-one]: the IC50 was in the range of 1 to 10 µM.
With `O=C1COCCN1c1cc(F)c(F)c(Cn2ncc3cnc(Nc4cnn(CCO)c4)nc32)c1F` [Example 62, 4-(2,4,5-Trifluoro-3-((6-((1-(2-hydroxyethyl)-1H-pyrazol-4-yl)amino)-1H-pyrazolo[3,4-d]pyrimidin-1-yl)methyl)phenyl)morpholin-3-one], the half-inhibitory concentration (IC50) lay in the range of 1 to 10 µM.
For `Cn1cc(Nc2ncc3cnn(Cc4cc(F)cc(N5CCOCC5=O)c4F)c3n2)cn1` [Example 73, 4-(2,5-Difluoro-3-((6-((1-methyl-1H-pyrazol-4-yl)amino)-1H-pyrazolo[3,4-d]pyrimidin-1-yl)methyl)phenyl)morpholin-3-one] the value was 0.1 to 1 µM.
With `O=C1COCCN1c1cc(F)cc(Cn2ncc3cnc(Nc4cnn(CCO)c4)nc32)c1F` [Example 74, 4-(2,5-Difluoro-3-((6-((1-(2-hydroxyethyl)-1H-pyrazol-4-yl)amino)-1H-pyrazolo[3,4-d]pyrimidin-1-yl)methyl)phenyl)morpholin-3-one] the figure was 0.1 to 1 µM.
For `COC1CN(c2cccc(Cn3ncc4cnc(Nc5cnn(C)c5)nc43)c2)C1` [Example 65, 1-(3-(3-Methoxyazetidin-1-yl)benzyl)-N-(1-methyl-1H-pyrazol-4-yl)-1H-pyrazolo[3,4-d]pyrimidin-6-amine] the value was no less than 10 µM; for `CN(C)CCCn1cc(Nc2ncc3cnn(Cc4c(F)c(F)cc(N5CCOCC5)c4F)c3n2)cn1` [Example 42, N-(1-(3-(Dimethylamino)propyl)-1H-pyrazol-4-yl)-1-(2,3,6-trifluoro-5-morpholinobenzyl)-1H-pyrazolo[3,4-d]pyrimidin-6-amine], 1 to 10 µM.
As to `Fc1cc(N2CCOCC2)c(F)c(Cn2ncc3cnc(Nc4cn[nH]c4)nc32)c1F` [Example 81, N-(1H-Pyrazol-4-yl)-1-(2,3,6-trifluoro-5-morpholinobenzyl)-1H-pyrazolo[3,4-d]pyrimidin-6-amine], the IC50 lay within 1 to 10 µM.
As for `Cn1cc(Nc2ncc3cnn(Cc4cccc(N5CCNCC5=O)c4F)c3n2)cn1` [Example 54, 1-(2-Fluoro-3-((6-((1-methyl-1H-pyrazol-4-yl)amino)-1H-pyrazolo[3,4-d]pyrimidin-1-yl)methyl)phenyl)piperazin-2-one], the IC50 lay within 1 to 10 µM.
With `CN(C)CCCn1cc(Nc2ncc3cnn(Cc4cccc(N5CCOCC5)c4F)c3n2)cn1` [Example 43, N-(1-(3-(Dimethylamino)propyl)-1H-pyrazol-4-yl)-1-(2-fluoro-3-morpholinobenzyl)-1H-pyrazolo[3,4-d]pyrimidin-6-amine] the figure was 1 to 10 µM.
Take `Cn1cc(Nc2ncc3cnn(Cc4cc(N5CCNCC5=O)cc(F)c4F)c3n2)cn1` [Example 71, 1-(3,4-Difluoro-5-((6-((1-methyl-1H-pyrazol-4-yl)amino)-1H-pyrazolo[3,4-d]pyrimidin-1-yl)methyl)phenyl)piperazin-2-one]: the IC50 is no less than 10 µM.
`Cn1cc(Nc2ncc3cnn(Cc4cc(N5CCNCC5)cc(F)c4F)c3n2)cn1` [Example 86, 1-(2,3-Difluoro-5-(piperazin-1-yl)benzyl)-N-(1-methyl-1H-pyrazol-4-yl)-1H-pyrazolo[3,4-d]pyrimidin-6-amine]: the IC50 was in the range of 1 to 10 µM.
For `OCCn1cc(Nc2ncc3cnn(Cc4cc(N5CCNCC5)cc(F)c4F)c3n2)cn1` [Example 78, 2-(4-((1-(2,3-Difluoro-5-(piperazin-1-yl)benzyl)-1H-pyrazolo[3,4-d]pyrimidin-6-yl)amino)-1H-pyrazol-1-yl)ethanol] the value was 1 to 10 µM; for `Cn1cc(Nc2ncc3cnn(Cc4cccc(C(=O)N5CCOCC5)c4F)c3n2)cn1` [Example 87, (2-Fluoro-3-((6-((1-methyl-1H-pyrazol-4-yl)amino)-1H-pyrazolo[3,4-d]pyrimidin-1-yl)methyl)phenyl)(morpholino)methanone], 1 to 10 µM; for `Cn1cc(Nc2ncc3cnn(Cc4cccc(N5CCOCC5O)c4)c3n2)cn1` (centres unmarked) [Example 88, 4-(3-((6-((1-Methyl-1H-pyrazol-4-yl)amino)-1H-pyrazolo[3,4-d]pyrimidin-1-yl)methyl)phenyl)morpholin-3-ol], no less than 10 µM.
For `Cn1cc(Nc2ncc3cnn(Cc4cccc(N5CCNCC5)c4F)c3n2)cn1` [Example 67, 1-(2-Fluoro-3-(piperazin-1-yl)benzyl)-N-(1-methyl-1H-pyrazol-4-yl)-1H-pyrazolo[3,4-d]pyrimidin-6-amine], the IC50 lay within 1 to 10 µM.
With `O=C1COCCN1c1cc(F)c(F)c(Cn2ncc3cnc(Nc4cnn(CCO)c4)nc32)c1` [Example 59, 4-(3,4-Difluoro-5-((6-((1-(2-hydroxyethyl)-1H-pyrazol-4-yl)amino)-1H-pyrazolo[3,4-d]pyrimidin-1-yl)methyl)phenyl)morpholin-3-one] the figure was no less than 10 µM.
With `O=C1CNCCN1c1cc(F)c(F)c(Cn2ncc3cnc(Nc4cnn(CCO)c4)nc32)c1` [Example 72, 1-(3,4-Difluoro-5-((6-((1-(2-hydroxyethyl)-1H-pyrazol-4-yl)amino)-1H-pyrazolo[3,4-d]pyrimidin-1-yl)methyl)phenyl)piperazin-2-one] the figure was no less than 10 µM.
With `CN(C)CCCn1cc(Nc2ncc3cnn(Cc4c(F)c(F)cc(N5CCOCC5=O)c4F)c3n2)cn1` [Example 70, 4-(3-((6-((1-(3-(Dimethylamino)propyl)-1H-pyrazol-4-yl)amino)-1H-pyrazolo[3,4-d]pyrimidin-1-yl)methyl)-2,4,5-trifluorophenyl)morpholin-3-one] the figure was 1 to 10 µM.

The record behind these values is patent publication US9040545B2, “Heterocyclyl pyrazolopyrimidine analogues as selective JAK inhibitors” (Cellzome Limited, priority 2010, dated 2015).
